Assay results: ChEMBL document CHEMBL3044887, “The antifungal activity of widdrol and its biotransformation by Colletotrichum gloeosporioides (penz.) Penz. & Sacc. and Botrytis cinerea Pers.: Fr” (2006)
Active and inactive are the calls of the source. The rule behind the calls is not given here.

Assays:
Botrytis cinerea [1] = assay: Antifungal activity against Botryotinia fuckeliana 2100 assessed as inhibition of mycelial growth at 100 ppm measured after 6 days; format: functional
[2] = system: Colletotrichum gloeosporioides; assay: Antifungal activity against Colletotrichum gloeosporioides 20122 assessed as inhibition of mycelial growth at => 100 ppm measured after 24 to 144 hr; format: functional, organism-based
Botrytis cinerea [3] = assay: Antifungal activity against Botryotinia fuckeliana 2100 assessed as inhibition of mycelial growth at 200 ppm measured after 6 days; format: functional; conditions: Botrytis cinerea, 2100, 144 h; read-out: GI

| SMILES | growth inhibition (GI) (Botrytis cinerea [1]) | also measured |
| --- | --- | --- |
| C[C@@]1(O)CC=C2[C@@](C)(CCC[C@@]2(C)CO)CC1 | inactive |  |
| CC1(C)C2=CC[C@@](C)(O)CC[C@]2(C)CC[C@@H]1O | inactive |  |
| CC1(C)CCC[C@@]2(C)CC[C@](C)(O)CC=C12 [WIDDROL] |  | inhibition of growth at 100 ppm (Botrytis cinerea [1]; Botrytis cinerea, 2100, 144 h, read-out: GI): 60%; growth inhibition (GI) [2]: inactive; inhibition of growth at 200 ppm (Botrytis cinerea [3]): 70.7% |
| CC1(C)C(=O)CC[C@@]2(C)CC[C@](C)(O)CC=C12 | inactive |  |
| CC1(C)CC[C@@H]2O[C@]13[C@H](O)C[C@@](C)(O)CC[C@]23C | inactive |  |
| CC1(C)C2=CC[C@@](C)(O)CC[C@]2(C)CC[C@H]1O | inactive |  |
